Laboratory results taken from patent US20260083704A1, “LXR MODULATORS WITH BICYCLIC CORE MOIETY FOR TREATING DYSLIPIDEMIAS” (OrsoBio, Inc., priority 2022, published 2026).
“Also recorded” adds a separate entry of the source.

Experiments:
[1] = test system: ABCA1/ABCG1 in PBMCs; assay: Phase 1 study, MAD cohorts: expression of ABCA1/ABCG1 in PBMCs (peripheral RCT); assay type: in vivo, human; conditions: healthy subjects, predose and 4 h postdose on Day 14
Protocol: (§1) Lipid parameters, including apolipoprotein B (apoB), were evaluated by NMR LipoProfile® (Labcorp, Burlington, NC. Plasma ApoC3 and ANGPTL3 were evaluated by ELISA (360biolabs, Melbourne, Australia). Peripheral RCT (reverse cholesterol transport) were evaluated by assessing changes in expression of ABCA1/ABCG1 in PBMCs, predose and 4 hours postdose on Days 1 and 14 (Gnomix, Bedford Park, Australia).
In FIG. 14A to 14C, ApoC3 and ANGPTL3 measured 12 h postdose. RCT assessed predose and 4 h postdose on Day 14.

[2] = test system: healthy subjects; assay: Phase 1 study, MAD cohorts: serum lipid parameters by NMR LipoProfile; assay type: in vivo, human; conditions: Day 1 to Day 14
Protocol: as §1
Methods. In a randomized, double-blind, placebo (PBO)-controlled Phase 1 study, healthy subjects (n=8/2 Compound 21/3 vs PBO/cohort) received single ascending doses (SAD) of Compound 21/3 (0.5, 2, 6, 12, or 20 mg) or multiple ascending doses (MAD) QD for 14 days (0.5, 2, 6, or 12 mg) while fed or 6 mg fasted. Safety, PK, serum lipid parameters by NMR LipoProfile®, and gene expression in PBMCs were evaluated.
Results. The proportion of subjects with adverse events (AEs) was 60% with PBO and 13-50% with Compound 21/3 in the SAD cohorts (n=50), and 40% and 13-88%, respectively, in the MAD cohorts (n=50). All AEs were mild except an unrelated, Grade 2 thrombophlebitis in a subject on Compound 21/3 2 mg. […] With fasted dosing, exposures were similar on Days 1 and 14 and ˜3-fold higher than with fed dosing. […] In FIG. 13A-13H, figures on graphs indicate median relative (%) change in predose NMR Lipoprofile® parameter from Day 1 to Day 14. […]

## N#Cc1cccc(C#N)c1-c1c(-c2cccc(-c3ccc(C(=O)NCC(=O)O)cc3Cl)c2)n(S(=O)(=O)c2ccc(C(F)F)cc2)c2ccc(F)cc12 [Compound 21/3]
[1]
  peripheral RCT: expression of LXR target genes in PBMCs incl. ABCA1/ABCG1: does not impact; also recorded: did not impact
[2]
  HDL-C: not HDL-C
  serum triglycerides, total and LDL-C, total and small LDL particles, TG/HDL-C ratio: Significant, dose-dependent reductions; also recorded: significant, dose-dependent improvements
